Measured values published in patent publication US11413278B2, “Compounds and methods for promoting stress resistance” (priority 2015, dated 2022).
“Also recorded” adds a separate entry of the source. Like-named read-outs stand apart in the source and are kept apart here.

Experiments:
in vitro = assay type: cell-based, human; settings: human
WI-38 cells = assay: Propidium iodide (PI) cell-death imaging upon H2O2 stress; assay type: cell-based, human; settings: for Assay 7: H2O2-resistant, at 10 uM, validated by propidium iodide (PI) cell-death imaging: w/H2O2, 3 hrs/4 hrs/5 hrs, YES/NO; for cytotoxicity at 10 µM: Homo sapiens, WI-38
[1] = tested on: HTB-178 lung tumor cells (EGFR+, PIK3CA+, RB1−, TP53−); assay: Killing effects on HTB-178 tumor cells; assay type: cell-based, human; settings: for Assay 21: Potential killing effects on HTB-178 tumor cells: 10 uM, YES/NO
human protein targets = settings: PubChem database queries; cited from earlier work
[2] = H2O2 3 hrs, 10 uM, n = 6, negative control 5.44% ± 0.79%, read-out: Percentage of propidium iodide-positive dead cells (under H2O2 stress treatment), 3 hrs
[3] = H2O2 4 hrs, 10 uM, n = 6, negative control 16.81% ± 1.42%, read-out: Percentage of propidium iodide-positive dead cells (under H2O2 stress treatment), 4 hrs
[4] = H2O2 5 hrs, 10 uM, n = 6, negative control 22.50% ± 1.53%, read-out: Percentage of propidium iodide-positive dead cells (under H2O2 stress treatment), 5 hrs
[5] = pre-treatment at 10 uM, 3.5 hours of H2O2, DMSO control 27.4% ± 6.5%, */**/*** = reduced by one/two/three standard deviations, read-out: Percentage of propidium iodide-positive dead cells (under H2O2 stress treatment), at 10 uM

| Compound | Assay 7: H2O2-resistant, at 10 uM, validated by propidium iodide (PI) cell-death imaging (WI-38 cells; 10 uM) | cytotoxicity at 10 µM (WI-38 cells; [2]) | cytotoxicity at 10 µM (WI-38 cells; [3]) | cytotoxicity at 10 µM (WI-38 cells; [4]) | cytotoxicity at 10 µM (WI-38 cells; [5]) | Potential killing effects on HTB-178 tumor cells, 1st ([1]; Assay 1(y), at 10 uM) | other results |
| --- | --- | --- | --- | --- | --- | --- | --- |
| NS(=O)(=O)c1ccc(NC(=O)c2ccc([N+](=O)[O-])o2)cc1 [Gr-1A] | YES | 1.44% | 3.18% | 7.49% | 22.6% | YES; | cytotoxicity at 24 h, 10 uM (in vitro): 30% |
| O=C(Nc1cc(C(F)(F)F)ccc1Cl)c1ccc([N+](=O)[O-])o1 [Gr-1B] | YES | 2.69% | – | – | 38.1% | – | – |
| CCc1ccccc1NC(=O)c1ccc([N+](=O)[O-])o1 [Gr-1C] | YES | 2.49% | 3.1% | 4.05% | 7.8% | – | – |
| O=C(Nc1cccc(Cl)c1)c1ccc([N+](=O)[O-])o1 [Gr-1D] | YES | 6.27% | 5.83% | – | 36.7% | – | – |
| O=C(Nc1cccc(C(F)(F)F)c1)c1ccc([N+](=O)[O-])o1 [Gr-1E] | YES | 1.68% | 2.95% | 3.44% | 18.8% | – | – |
| O=C(Nc1ccc(Cl)c(Cl)c1)c1ccc([N+](=O)[O-])o1 [Gr-1G] | YES | – | – | – | 34.4% | – | – |
| Cc1ccc(S(=O)(=O)Nc2cccc3cccnc23)cc1 [Gr-3B] | YES | 4.63% | – | – | 2.6% | YES; | Potential targets: human protein targets (confirmed) (human protein targets): ADRB2, AGTR1, APLNR, ARNT, BARD1, BRCA1, CCR6, CFTR, CHRM4,; also recorded: CXCR6, DRD3, EPAS1, GOPC, HIF1A, HTT, IL1B, MAP1LC3A, MDM2,; also recorded: MDM4, MITF, NFE2L2, NOD1, NOD2, NOD2, RR2E3, OPRD1, OPRK1,; also recorded: OPRM1, PRNP, RIPK2, S1PR1, S1PR4, SIX1, SLC12A5, SMAD3, TACC3,; also recorded: TARDBP, TDP1, TLR9, TNF |
| COc1ccc(C(=O)/C=C/c2ccc(F)cc2)c(OC)c1 [Gr-4A] | YES | 1.87% | – | – | 1.9% | – | – |
| COc1ccc(C(=O)/C=C/c2ccccc2Br)c(OC)c1 [Gr-4B] | YES | 3.31% | – | – | 3.4% | – | – |
| COc1ccc(C(=O)/C=C/c2cccc(Cl)c2)c(OC)c1 [Gr-4C] | YES | 4.02% | 6.21% | – | 17.4% | – | – |
| O=C(/C(=C/c1ccc(Cl)cc1)c1nc2ccccc2[nH]1)c1ccccc1 [Gr-4D] | YES | 1.58% | 7.44% | – | 19.8% | YES; | Potential targets: human protein targets (confirmed) (human protein targets): ABHD5, ATXN2, BARD1, BRCA, CFTR, CHRM1, CHRM4, CYP2C9, CYP3A4,; also recorded: DRD3, EPAS1, GMNN, GPR183, HIF1A, HNF4A, HTT, IDH1, IL1B, MAPT,; also recorded: MDM2, MDM4, MITF, NFKB1, NOD1, NOD2, PLIN5, RELA, SMAD3, TDP1,; also recorded: TNF, TNFRSF10B, TUBB |
| CCc1ccc(Oc2nc3ccccn3c(=O)c2/C=C(\C#N)C(=O)NC2CCCCC2)cc1 [Gr-5A] | YES | 1.64% | 8.97% | – | 3.7% | YES; | – |
| CCc1ccc(Oc2nc3ccccn3c(=O)c2/C=C(\C#N)C(=O)NCc2ccco2)cc1 [Gr-5B] | YES | 1.18% | 6.19% | – | 6.1% | – | – |
| CNC(=O)/C(C#N)=C/c1c(Oc2ccc(C(C)(C)C)cc2)nc2ccccn2c1=O [Gr-5D] | YES | 3.28% | – | – | 6.4% | – | – |
| Cc1cc(N)n(-c2ccccc2C(=O)O)n1 [Gr-6A] | YES | 4.38% | – | – | 15.6% | YES; | – |
| O=C(/C=C/c1cn(-c2ccccc2)nc1-c1cccnc1)c1ccccc1 [Gr-6B] | YES | 2.62% | – | – | 2.1% | – | – |

| Compound | Assay 7: H2O2-resistant, at 10 uM, validated by propidium iodide (PI) cell-death imaging (WI-38 cells; 10 uM) | cytotoxicity at 10 µM (WI-38 cells; [2]) | cytotoxicity at 10 µM (WI-38 cells; [3]) | cytotoxicity at 10 µM (WI-38 cells; [4]) | cytotoxicity at 10 µM (WI-38 cells; [5]) | Potential killing effects on HTB-178 tumor cells, 1st ([1]; Assay 1(y), at 10 uM) | other results |
| --- | --- | --- | --- | --- | --- | --- | --- |
| N=C1S/C(=C\c2cn(-c3ccccc3)nc2-c2cccs2)C(=O)N1c1nccs1 [Gr-6C] | YES | 1.17% | 1.39% | 6.12% | 7.9% | – | – |
| O=C(NCc1cccnc1)/C(=C\c1ccc(Br)cc1)S(=O)(=O)c1ccccc1 [Gr-7B] | YES | 5.88% | 6.44% | – | 4.7% | YES; | Assay 21: Potential killing effects on HTB-178 tumor cells [1]: YES; Toxicity / viability of HTB-178 lung tumor cells ([1]; 10 μM, preliminary data): exerted more pronounced toxicity; also recorded: significantly reduce the viability |
| O=C1NCCCc2cc(Cl)sc21 [O1] | YES | 5.8% | – | – | 20.4% | – | – |
| CC1C(=O)C(C)C(c2cc(Cl)ccc2O)NC1c1cc(Cl)ccc1O (stereo not drawn) [O6] | YES | 0.8% | 4.92% | 9.82% | 16.8% | YES; | Potential targets: human protein targets (confirmed) (human protein targets): ADAM10, ADAM17, ATXN2, GLP1R, IDH1, IL1B, KCNE1, KCNQ1, NTSR1 |
| O=C(Nc1nc(C23CC4CC(CC(C4)C2)C3)cs1)C(c1ccccc1)c1ccccc1 [O10] | YES | 2.19% | 4.27% | – | 3.6% | – | – |
| COc1cc2c(no[n+]2[O-])n2nnnc12 [O11] | YES | – | – | – | – | YES; | Percentage of propidium iodide-positive dead cells (under H2O2 stress treatment), 3 hrs (WI-38 cells; H2O2 3 hrs, 10 uM, n = 6, negative control 5.44% ± 0.79%): 2.19% ± 0.35%,; Percentage of propidium iodide-positive dead cells (under H2O2 stress treatment), 4 hrs (WI-38 cells; H2O2 4 hrs, 10 uM, n = 6, negative control 16.81% ± 1.42%): 2.80% ± 0.49%,; Percentage of propidium iodide-positive dead cells (under H2O2 stress treatment), 5 hrs (WI-38 cells; H2O2 5 hrs, 10 uM, n = 6, negative control 22.50% ± 1.53%): 2.90% ± 0.70%,; Percentage of propidium iodide-positive dead cells (under H2O2 stress treatment), at 10 uM (WI-38 cells; pre-treatment at 10 uM, 3.5 hours of H2O2, DMSO control 27.4% ± 6.5%, */**/*** = reduced by one/two/three standard deviations): 26.5% |
| CCCC(=O)Nc1ccc(-c2cn3cccc(C)c3n2)cc1 [O12] | YES | 0.74% | 0.77% | 1.33% | 0.4% | YES; | – |
| Oc1ncnc2sc3c(c12)CCC3 [O14] | YES | 3.8% | – | – | 12.7% | – | Potential targets: human protein targets (confirmed) (human protein targets): TRHR |
| CCCN1C/C(=C\c2ccc(F)cc2)C(=O)/C(=C/c2ccc(F)cc2)C1 [O15] | YES | 4.04% | 4.4% | 6.06% | 6.8% | YES; | Potential killing effects on HTB-178 tumor cells, 2nd ([1]; Assay 1(y), at 10 uM, 2nd): YES. |
| Cc1cc(C)c(C(=O)/C=C/c2ccccc2F)c(O)n1 [O18] | YES | 3.66% | 3.06% | 4.16% | 4.5% | – | Potential targets: human protein targets (confirmed) (human protein targets): JAK2 |
| COC(=O)CCc1sc2c(c1[N+](=O)[O-])NC(=O)CCC2 [O20] | YES | 3.28% | – | – | 9.4% | – | – |
| COc1ccc(/C=C2\SC(=N)N(c3nccs3)C2=O)cc1 [O21] | YES | 2.05% | – | – | 7.8% | – | – |
| CC(C)(C)c1ccc(OCC(=O)Nc2ccc3c4c(cccc24)C(=O)NC3=O)cc1 [O22] | YES | 4.84% | – | – | 4.1% | – | Potential targets: human protein targets (confirmed) (human protein targets): APOBEC3F, CFTR, NCOA3, OPRD1, OPRM1, PPARG, S1PR4, TDP1 |
| COc1cccc(/C=C2\CN(C)C/C(=C\c3cccc(OC)c3OC)C2=O)c1OC [O23] | YES | 5.65% | 4.76% | 8% | 10.2% | YES; | cytotoxicity at 24 h, 10 uM (in vitro): 40% |
| Oc1ccccc1-c1noc(-c2ccccc2O)n1 [O27] | YES | 0.55% | 0.82% | 1.07% | 0.5% | – | Assay 21: Potential killing effects on HTB-178 tumor cells [1]: YES |
